Measured values: US4150970A, “Growth regulator for plants” (Board of Trustees of Michigan State University, priority 1977, dated 1979)
Values after ≈ are worked out from the molar mass of the structure shown.

Legend:
plants = experiment: Plant growth regulation (general statement); assay type: in vivo; conditions: crops
field corn = experiment: Foliar spray and soil drench on field corn (Example IX); assay type: in vivo; conditions: for % increase: dry weight
Experimental: To determine the effect of triacontanol methods of treatment, differing amounts of triacontanol were applied to field corn by foliar spray and by drenching the soil. The plants were twelve days old at the time of treatment, and the plants were harvested when forty-two days old.
0.01 mg/l triacontanol applied by soil drench corresponds to 0.4 grams pe
acre. 0.10 mg/l corresponds to 4 grams per acre.

Coho barley seedlings = experiment: Barley seedlings, triacontanol solutions applied to soil (Example XV); assay type: in vivo
From the text: To study the growth of 25-day-old "Coho" barley seedlings treated with triacontanol solutions applied to the soil in the greenhouse. Treatments were started when seedlings were 13 days old.

IR-8 rice seedlings = experiment: Dry weight and total protein of 18-day-old rice seedlings in light and dark for 24 hours (Examples X and XVII); assay type: in vivo; conditions: for Dry Wt, Entire Plant / Dry Wt, Expanded leaves / Dry Wt, Roots / Dry Wt, Sheaths: 24 hours
Experimental: Rice seed cv. IR-8, or Starbonnet was surface treated with 0.1 percent mercuric chloride and planted in 77 cc plastic cups containing vermiculite and watered with one-fourth Hoagland's nutrient solution containing 3 mM of nitrogen at pH 5.0. After 10 days, seedlings were transplanted to 220 cc specimen cups wrapped in aluminum foil and containing 180 cc of the same Hoagland's nutrient solution. Four seedlings were suspended in the solution with a sponge rubber disc. The plants were grown under a 8 h night at 25° C. and a 16 h day at 30° C. with 21 and 8 μwatts per cm^2 in the blue and red spectra respectively. In the test with varying light intensity the high light intensity was 30 13 and the low intensity was 15 and 8 μwatts per cm^2 for the blue and red spectra respectively. The nutrient solution was renewed every 2 or 3 days. After one week the plants were sorted for size and similar sized plants assigned to the same block for the experiment. Prior to the initiation of a test the plants in each cup were assigned treatment numbers by use of a random number table. […] Sixteen hours prior to a test the foil wrapped cups were tared, and filled with one-half Hoaglands solution containing 6 mM nitrogen. Eighteen μl of chloroform or chloroform containing 1.8 μg triacontanol were placed on 2 cm^2 of Whatman No. 1 filter papers, air dried and placed in the specimen cups. This concentration of 10 μg triacontanol/liter was used for all tests described in the following Examples except where specifically indicated to the contrary. Immediately prior to the test the cups were all brought up to 180 ml. including a set of cups without plants to measure evaporation.
Plants were placed in 20×32 cm glass jars fitted with gas inlet and outlet ports. Three jars containing 2 cups each were used for a total of 24 plants for each treatment. The plants were ventilated with air or freed of CO2 by passing it through ascarite and then humidified. The flow rate was approximately 300 ml/minute. Carbon dioxide-free air was also used to purge the appropriate jars during a two minute period required to place the plants in the jars. The N analyses were done by the automated micro-Kjelldahl procedure of Ferrari (1960).
Using the materials and procedures set forth above, dry weight and total protein (nitrogen) content of 18-day-old "IR-8" rice seedlings grown in light and dark for 24 hours with or without triacontanol was determined. Table X sets forth the results:
This example was run to determine the percent change in dry weight of whole 18-day-old "IR-8" rice seedlings treated with triacontanol in the light and dark over a 24 hour period expressed as percent change from zero time. The dry weight at zero time was 50.8 mg per seedling.

Solubility = assay type: physicochemical
Chico III tomatoes = experiment: Synthetic triacontanol on tomatoes grown in soil, foliage sprayed (Example III); assay type: in vivo, tomato; conditions: six days
Experimental: Synthetic triacontanol in aqueous solution was applied to rice (4 replicates) in nutrient cultures and to "Chico III" tomatoes (6 replicates) grown in soil as previously described. The response of both rice and tomatoes to synthetic triacontanol after seven and six days respectively was similar to that of the natural triacontanol with the optimum rate at between 0.01 and 0.1 mg per liter, as summarized in the following table III:
^2 Tomatoes grown in greenhouse soil and foliage sprayed, including

[1] = tested on: Barley callus cell culture; experiment: Growth of barley callus cell culture (Example XIX); assay type: cell-based, interspecific cross of Hordeum vulgare and Hordeum jubatum
Experimental: Cell cultures were separately grown in disposable petri dishes.
5. Barley (interspecific cross of Hordeum vulgare and Hordeum jubatum)
The cultures were grown on the basic medium of mineral salts described by Linsmaier and Skoog (Physiol. Plant, […] (1965)). Vitamins and hormones varied for each tissue (Table X-1) to maintain the tissues in an undifferentiated state. For all of the tissues inositol was 100 mg/liter and agar 1%. Sucrose was 3% for all but the bean which was 2%.
Callus was produced from pith for tobacco, potato and tomato. Bean callus was produced from hypocotyl sections and barley callus from immature ovarian tissue. Subcultures were maintained on the appropriate media.
Stock solutions of triacontanol were prepared at a concentration of 100 μg/ml. The solvent used was glass distilled benzene. The lower concentrations were obtained by serial dilutions. Treatments were applied to 4.5 cm Whatman #1 filter paper disks in 100 μl aliquots. Controls received 100 μl of glass distilled benzene. The solvent was evaporated for approximately 15 minutes and the filter papers were then placed on the agar medium.
Callus tissue was then broken into pieces of approximately the same size (10 mg) and placed in the petri dishes on the treated filter paper (one piece per dish). For experiments conducted in the light the intensity was approximately 2.0 microwatts/cm^2 -namometer. Fresh weight measurements were made after 12 days of growth.

[2] = foliar spray, 0.01 mg/l (first line)
[3] = foliar spray, printed 0.01 mg/l (second line)
[4] = printed 10.0 g triacontanol, 12 days

## CCCCCCCCCCCCCCCCCCCCCCCCCCCCCCO [Triacontanol, 1-triacontanol]
plants
  application rate that substantially increases crop growth: ≥ 0.4 grams per acre
Field corn; corn seedlings
  application rate for maximum effectiveness: about 4 grams per acre
  effective application rate: about 0.4 grams per acre
Field corn; [2]
  Dry Weight: 408 mg/shoot
  % increase: 22%
Field corn; [3]
  Dry Weight: 463 mg/shoot
  % increase: 39%
Field corn; soil drench, 0.01 mg/l
  Dry Weight: 426 mg/shoot
  % increase: 22%
Field corn; soil drench, 0.10 mg/l
  Dry Weight: 519 mg/shoot
  % increase: 48%
Coho barley seedlings; nutrients 0, triacontanol 0.01 mg/L
  Seedling wt: 275 mg/shoot
Coho barley seedlings; nutrients 0, triacontanol 0.10 mg/L
  Seedling wt: 270 mg/shoot
Coho barley seedlings; nutrients 100 mg 20-20-20/L, triacontanol 0.01 mg/L
  Seedling wt: 310 mg/shoot
Coho barley seedlings; nutrients 100 mg 20-20-20/L, triacontanol 0.10 mg/L
  Seedling wt: 316 mg/shoot
Coho barley seedlings; nutrients 1000 mg 20-20-20/L, triacontanol 0.01 mg/L
  Seedling wt: 438 mg/shoot
Coho barley seedlings; nutrients 1000 mg 20-20-20/L, triacontanol 0.10 mg/L
  Seedling wt: 442 mg/shoot
IR-8 rice seedlings; dark, 6- and 24-hour harvests
  dry weight in the dark versus dark controls: gained significantly more weight than the dark controls
IR-8 rice seedlings; dark
  Dry Wt, Entire Plant: 55.0 mg/plant
  Dry Wt, Expanded leaves: 22.0 mg/plant
  Dry Wt, Roots: 20.3 mg/plant
  Dry Wt, Sheaths: 12.8 mg/plant
IR-8 rice seedlings; light
  Dry Wt, Entire Plant: 72.9 mg/plant
  Dry Wt, Expanded leaves: 30.3 mg/plant
  Dry Wt, Roots: 24.6 mg/plant
  Dry Wt, Sheaths: 18.0 mg/plant
Solubility; alcohol
  solubility in alcohol, qualitative: soluble in alcohol
Solubility; ether and benzene
  solubility in ether and benzene, qualitative: very soluble in ether and benzene
Solubility; water
  solubility in water, qualitative: relatively water insoluble
Solubility; water, read-out: solubility limit in water
  solubility: ~0.3 µg/mL (≈ 0.684 µM)
Chico III tomatoes; 0.001 mg/liter
  Dry wt: 227 mg/shoot
Chico III tomatoes; 0.010 mg/liter
  Dry wt: 251 mg/shoot
Chico III tomatoes; 0.100 mg/liter
  Dry wt: 245 mg/shoot
Chico III tomatoes; 1.000 mg/liter
  Dry wt: 234 mg/shoot
[1]; barley
  growth of in vitro cell cultures: significant increases in growth
[1]; [4]
  % of control: 167 % of control
  Fresh weight: 35.0
